Reference: patent publication EP0681475B1 (priority 1993, dated 1994)
Like-named read-outs stand apart in the source and are kept apart here.

Legend:
[1] = tested on: pig femoral arteries; conditions: in vivo
[2] = tested on: vascular smooth muscle cells; assay type: in vivo, pig
[3] = tested on: Vascular smooth muscle cells; experiment: In vitro recovery of migration after clearance of the agent; assay type: cell-based; conditions: cells regenerate enough polymerized actin
[4] = tested on: Vascular smooth muscle cells
[5] = tested on: Vascular smooth muscle cells (BO54); experiment: Scratch-migration assay; assay type: cell-based, baboon; conditions: 0.1 µg/ml
Protocol: Scratch assays to determine the extent of smooth muscle cell migration inhibition by cytochalasin B were performed in accordance with the following protocol: Vascular smooth muscle cells (BO54) were derived from explants of baboon aortic smooth muscle, as described in Example 2. The cells were grown in flat bottom, six well tissue culture plates, which hold about 5 ml of medium. The vascular smooth muscle cells were plated at 200,000 cells/well and placed at 37°C in a humidified 5% CO2 incubator for 18 hours. The wells were then scratched with a sterile portion of a single edge razor blade that was held by clamp or pliers and was brought aseptically into contact with the bottom of the well at a 90° angle.The cells from a small area along the scratch were removed by a sterile cotton tipped applicator while the blade was in contact with the bottom of the well.
After incubation, the presence of cells in the "scratched" area is indicative of cell migration across the scratch line.
Briefly, a stock solution of cytochalasin B (Sigma Chemical Co.) in dimethyl sulfoxide (DMSO) at 1 mg/ml was prepared. Test dilutions of cytochalasin B or control medium were added. […]
The migration results are expressed as "Grade in the Cleared Area of the Well / Grade in an Undisturbed Region of the Well." The toxicity values represent a grade for all cells in each well.

[6] = tested on: Vascular smooth muscle (BO54) cells; assay type: cell-based, baboon
[7] = tested on: Vascular smooth muscle (BO54) cells; assay type: cell-based, baboon; remark: listed apart in the source

Molecule | effect on luminal area in dose response study [1] | incidence of mural microthrombi [1] | lumen area in the test region compared to the normal control segment of the same artery [1] | luminal area compared to arteries treated with other test agents or controls [1] | BRDU labeling grade ([2]; 24 hours following balloon trauma, pretrauma baseline grade 1) | time to resume migration after cells clear the agent [3] | Morphological cytotoxicity grade ([4]; 0.01ug, Continuous 24 hrs (first listing, 24 hr pulse series)) | Morphological cytotoxicity grade ([4]; 0.01ug, continuous 24 hrs (second listing, long term continuous series)) | Morphological cytotoxicity grade ([4]; 0.1 ug, Continuous 24 hrs (first listing, 24 hr pulse series)) | Morphological cytotoxicity grade ([4]; 0.1 ug, continuous 24 hrs (second listing, long term continuous series)) | cytotoxicity grade ([4]; 1 µg/ml, anti-migration/contraction effective dose, 1 = minimal) | Morphological cytotoxicity grade ([4]; 1 ug, Continuous 24 hrs (first listing, 24 hr pulse series)) | Morphological cytotoxicity grade ([4]; 1 ug, continuous 24 hrs (second listing, long term continuous series)) | migration grade following removal of the therapeutic agent ([5]; even after 10 days of continuous exposure) | migration grade into the cleared area adjacent to the scratch ([5]; exposure) | minimum effective dose (MED) [6] | BRDU labeling grade ([2]; pig, in vivo) | minimum effective dose (MED) [7]
cytochalasin B | significant threshold effect | decreased | approximately two times as large | larger luminal area | 1 (1 = ≤ 1/high power field(HPF)) | ≤ 24 h | 0 | 0 | 1 | 0 | 1 | 3 | 3 | +3 to +4 | +1 to +2 |  |  | 
CN[C@@H]1C[C@H]2O[C@@](C)([C@@H]1OC)n1c3ccccc3c3c4c(c5c6ccccc6n2c5c31)C(=O)NC4 [staurosporin] |  |  |  |  |  |  |  |  |  |  |  |  |  |  |  | 1 ng/mL | 1 (key: 1 = ≤ 1/high power field(HPF); 2 = 2 to 5/HPF; 3 = > 5 to ≤ 10/HPF; 4 = > 10/HPF) | 1 ng/mL
